From patent US11559231B2, “System and method for determining a discrimination index for fear-potentiated startle” (Rosalind Franklin University of Medicine and Science, priority 2018, dated 2023)
Counter-ions that a name gives are not always drawn.

Target: T1, OT receptors (OTR) in the BNSTdl (Rattus norvegicus, UniProt P70536)
T1 construct: OT (100 ng), OTA (200 ng), or ACSF (all in volume of 0.5 μl per side) was injected bilaterally into the BNSTdl; from tissue; host or cells: brain (dorsolateral bed nucleus of the stria terminalis) of live male Sprague-Dawley rats
T1 sequence (P70536 1-388): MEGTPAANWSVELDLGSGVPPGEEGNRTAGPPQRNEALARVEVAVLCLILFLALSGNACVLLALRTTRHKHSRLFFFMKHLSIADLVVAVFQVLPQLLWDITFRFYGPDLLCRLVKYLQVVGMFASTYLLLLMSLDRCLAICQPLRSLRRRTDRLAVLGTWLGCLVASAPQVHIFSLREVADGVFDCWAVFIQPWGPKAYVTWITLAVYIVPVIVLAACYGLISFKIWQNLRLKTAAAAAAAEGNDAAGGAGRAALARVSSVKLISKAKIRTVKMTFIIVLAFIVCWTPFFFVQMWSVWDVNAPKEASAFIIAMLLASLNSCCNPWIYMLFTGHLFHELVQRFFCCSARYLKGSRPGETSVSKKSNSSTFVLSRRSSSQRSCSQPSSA
Experiment: Fear-potentiated startle (FPS): intra-BNSTdl OT or OTA before cued fear conditioning, then fear recall testing
Type: in vivo
Conditions: for TREATMENT effect on cued fear (percentage change of startle amplitude): OT 100 ng or OTA 200 ng bilateral intra-BNSTdl 10 min before fear conditioning, recall 24 h later in context B, P=0.0981; for TREATMENT effect on cued fear (percentage change of startle amplitude) / total discrimination index (DI) for the FPS session: one-way ANOVA ACSF/OT/OTA; for total discrimination index (DI) for the FPS session: all trials, P=0.1492; for discrimination between cued and non-cued fear (summary statement): infused into the BNSTdl before fear conditioning, FPS; for TREATMENT effect on cued fear (percent change), negative controls: injection sites outside the BNST, P=0.3990; for discrimination index over four time blocks, negative controls: injection sites outside the BNSTdl, P=0.5828; for discrimination index over four time blocks, negative controls / startle amplitude, light-noise vs noise-alone trials: effect of TREATMENT: two-way repeated measures ANOVA; for mean shock reactivity during the fear conditioning session / TREATMENT effect on percentage change of contextual fear / TREATMENT effect on percentage change of non-cued fear / startle amplitude, light-noise vs noise-alone trials: effect of TREATMENT: intra-BNSTdl ACSF, OT 100 ng, OTA 200 ng; for mean shock reactivity during the fear conditioning session: P=0.8684; for TREATMENT effect on percentage change of contextual fear: context A, day 5; for TREATMENT effect on percentage change of non-cued fear: context B, P=0.8993; for startle amplitude, light-noise vs noise-alone trials: effect of TREATMENT: P=0.8478
Procedure: A total of 75 rats were used for FPS experiments. The ACSF-treated group consisted of 23 rats, whereas there were 14 OT and 16 OTR antagonist (OTA)-treated rats included in the main analysis. […] These rats were analyzed as negative controls.
Stereotaxic surgery technique was identical to above except that guide cannulas were implanted bilaterally instead of a microdialysis probe (Moaddab and Dabrowska, 2017).
OT (100 ng), OTA (200 ng), or ACSF (all in volume of 0.5 μl per side) was injected bilaterally into the BNSTdl through a microinjector (28-gauge, 7 mm length; Plastics One, Roanoke, Va.) as described before (Moaddab and Dabrowska, 2017). Doses of OT and OTA were chosen based on previous studies on fear and anxiety in rats (Bale et al., 2001; Toth et al., 2012; Lahoud and Maroun, 2013; Neumann and Slattery, 2016; Moaddab and Dabrowska, 2017). Rats were assigned based on a second pre-test ASR into three treatment groups. Fear conditioning sessions were performed 10 min after the intra-BNSTdl injections.
FPS procedures were modified based on previous studies and according to protocol described in detail before (Walker et al., 2009; Missig et al., 2010; Ayers et al., 2011; Moaddab and Dabrowska, 2017). On days 1 and 2, rats underwent two pre-test sessions. On day 3 (fear conditioning), animals were placed in cylindrical enclosures containing a grid floor conveying foot shocks (as above). After 5 min acclimation, animals received 10 presentations of a 3.7 s cue light (CS), each co-terminating with a 0.5 s foot shock (US; 0.5 mA, inter-trial-interval 60-180 s). Background noise was absent during the conditioning session. Enclosures and chambers were cleaned with PREempt RTU disinfectant solution (Virox Technologies, Oakville, Canada) before and after each fear […] conditioning session (context A). Twenty-four hours later, on day 4, rats were tested for FPS expression (recall test) in context B. After 5 min of acclimation, they were exposed to 50 startle-eliciting WNBs (as above) and levels of cued and non-cued fear were measured. A background white noise of 70 dB continuously played throughout the session. The session consisted of 10 baseline startle trials (excluded from the analysis) followed by an additional 40 trials, with half presented in the presence of the cue light (CS+, light-noise) and the other half without the CS (CS-, noise-alone) in a pseudorandom order (inter-trial-interval 30 s). To make context A distinct from context B, enclosures and chambers were cleaned with 70% ethanol before and after the […] (different than in fear conditioning). The grid floor was also removed from the enclosures during cued FPS testing. In addition, a different experimenter from the training session performed the FPS testing session. On day 5, the same rats were tested for contextual fear recall in context A, where after 10 baseline startle trials (excluded from the analysis), startle amplitude was measured during 40 additional CS− trials (noise-alone, inter-trial-interval 30 s, FIG. 5, C).
Startle amplitude was defined as the maximum peak voltage within the first 200 ms after onset of the WNB. Shock reactivity amplitude was recorded during the fear conditioning session and was defined as the maximum peak voltage that occurred during the 500 ms foot shock delivery. Cued, non-cued, and contextual fear, were calculated as percent change scores of startle amplitude based on previous FPS studies (Walker et al., 2009; Missig et al., 2010; Ayers et al., 2011; Moaddab and Dabrowska, 2017).

Row | Molecule | TREATMENT effect on cued fear (percentage change of startle amplitude) | discrimination index in the fourth time block of fear memory recall, OT vs OTA-treated groups (OT 100 ng vs OTA 200 ng intra-BNSTdl, Bonferroni post hoc, P=0.0007) | OTA effect on cued fear vs ACSF (OTA 200 ng intra-BNSTdl, un-paired t-test vs ACSF, P=0.0763) | total discrimination index (DI) for the FPS session | discrimination between cued and non-cued fear (summary statement) | TREATMENT effect on cued fear (percent change), negative controls | discrimination index over four time blocks, negative controls | mean shock reactivity during the fear conditioning session | TREATMENT effect on percentage change of contextual fear | TREATMENT effect on percentage change of non-cued fear | startle amplitude, light-noise vs noise-alone trials: effect of TREATMENT | discrimination index in the fourth time block of fear memory recall, vs ACSF-treated group (OT 100 ng intra-BNSTdl, Bonferroni post hoc, P=0.0121)
1 | (d(CH2)5^1, D-Tyr^2, Thr4, Orn8, des-Gly-NH2 9)-vasotocin trifluoroacetate salt [OTA] | a trend in the TREATMENT effect on cued fear | significant differences in the discrimination indices | a trend in the OTA effect on cued fear | not significantly different | disables this discrimination | no significant effect of TREATMENT on cued fear | no significant main effect of TREATMENT | not different | no TREATMENT effect | no TREATMENT effect | no main effect of TREATMENT | –
2 | CC[C@H](C)[C@@H]1NC(=O)[C@H](Cc2ccc(O)cc2)NC(=O)[C@@H](N)CSSC[C@@H](C(=O)N2CCC[C@H]2C(=O)N[C@@H](CC(C)C)C(=O)NCC(N)=O)NC(=O)[C@H](CC(N)=O)NC(=O)[C@H](CCC(N)=O)NC1=O [OT, OT acetate salt] | a trend in the TREATMENT effect on cued fear | – | – | not significantly different | significantly increases discrimination between cued and non-cued fear | no significant effect of TREATMENT on cued fear | no significant main effect of TREATMENT | not different | no TREATMENT effect | no TREATMENT effect | no main effect of TREATMENT | significant differences in the discrimination indices
